Laboratory results as given in patent publication US6316413A (Fournier Industrie et Sante, priority 1996, dated 2001).

Legend:
[1] = target: T1, human B2 receptor cloned and transfected in a stable manner into a CHO cell line (Homo sapiens, UniProt P30411); assay: Binding to the cloned human bradykinin B2 receptor (CHO cell line); details: affinity for cloned human B2 receptor stably transfected into CHO cells
T1 construct: expressed in transfected cells
T1 sequence (P30411 1-391): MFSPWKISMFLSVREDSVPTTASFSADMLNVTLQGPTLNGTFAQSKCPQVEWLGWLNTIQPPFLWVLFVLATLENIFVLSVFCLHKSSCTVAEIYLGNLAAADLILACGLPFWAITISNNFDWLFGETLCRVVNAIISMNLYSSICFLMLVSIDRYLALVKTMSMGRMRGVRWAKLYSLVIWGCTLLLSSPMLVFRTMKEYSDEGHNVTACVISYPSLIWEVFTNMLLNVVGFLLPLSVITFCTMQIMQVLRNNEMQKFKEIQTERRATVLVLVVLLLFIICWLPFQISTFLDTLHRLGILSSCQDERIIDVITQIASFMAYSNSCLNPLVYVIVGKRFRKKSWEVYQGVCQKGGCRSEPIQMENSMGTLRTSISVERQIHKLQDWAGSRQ

[2] = target: T2, bradykinin B2 receptor (segments of human umbilical vein) (Homo sapiens, UniProt P30411); assay: B2 receptor-dependent contraction of human umbilical vein segments; assay type: cell-based; details: calculated from concentrations causing B2 receptor-dependent contraction of human umbilical vein; read-out: pD2 (converted)
T2 construct: determination of a pD2 value on segments of human umbilical vein; from tissue; host or cells: segments of human umbilical vein
T2 sequence (P30411 1-391): T1 sequence (P30411 1-391)

Compound | Ki [1] [nM] | EC50 [2] [nM]
N=C(N)NCCC[C@@H](N)C(=O)N[C@@H](CCCNC(=N)N)C(=O)N1CCC[C@H]1C(=O)N1C[C@H](O)C[C@H]1C(=O)NCC(=O)N[C@@H](Cc1cccs1)C(=O)N[C@@H](CO)C(=O)N[C@@H]1CSc2ccccc2N(CC(=O)N[C@@H](CCCNC(=N)N)C(=O)O)C1=O [Ex. 1, H-D-Arg-Arg-Pro-4Hyp-Gly-Thi-Ser-DBT(H)-Arg-OH] | 0.7 | 200
N=C(N)NCCC[C@H](NC(=O)CN1C(=O)[C@H](NC(=O)[C@H](CO)NC(=O)[C@H](Cc2cccs2)NC(=O)CNC(=O)[C@@H]2C[C@@H](O)CN2C(=O)[C@@H]2CCCN2C(=O)[C@H](CCCNC(=N)N)NC(=O)[C@@H](N)CCCCN)CSc2ccccc21)C(=O)O [Ex. 2, H-Lys-Arg-Pro-4Hyp-Gly-Thi-Ser-DBT(H)-Arg-OH] | 0.07 | 79.4

Second part, the compound after the results:

Ki [1] [nM] | EC50 [2] [nM] | Compound
12.9 |  | N=C(N)NCCC[C@H](NC(=O)CN1C(=O)[C@H](NC(=O)[C@H](CO)NC(=O)[C@H](Cc2ccccc2)NC(=O)CNC(=O)[C@@H]2CCCN2C(=O)[C@@H]2CCCN2C(=O)[C@@H](N)CCCNC(=N)N)CSc2ccccc21)C(=O)O [Ex. 3, H-Arg-Pro-Pro-Gly-Phe-Ser-DBT(M)-Arg-OH]
2.5 | 7940 | N=C(N)NCCC[C@@H](N)C(=O)N[C@@H](CCCNC(=N)N)C(=O)N1CCC[C@H]1C(=O)N1C[C@H](O)C[C@H]1C(=O)NCC(=O)N[C@@H](Cc1cccs1)C(=O)N[C@@H](CO)C(=O)N[C@@H]1COc2ccccc2N(CC(=O)N[C@@H](CCCNC(=N)N)C(=O)O)C1=O [Ex. 4, H-D-Arg-Arg-Pro-4Hyp-Gly-Thi-Ser-DBO(H)-Arg-OH]
6 | 56.2 | Cc1ccc2c(c1)SC[C@@H](NC(=O)[C@H](CO)NC(=O)[C@H](Cc1cccs1)NC(=O)CNC(=O)[C@@H]1C[C@@H](O)CN1C(=O)[C@@H]1CCCN1C(=O)[C@H](CCCNC(=N)N)NC(=O)[C@H](N)CCCNC(=N)N)C(=O)N2CC(=O)N[C@@H](CCCNC(=N)N)C(=O)O [Ex. 5, H-D-Arg-Arg-Pro-4Hyp-Gly-Thi-Ser-DBT(CH3)-Arg-OH]
